# Structures can show the parent of a compound that is named as a salt. Where two headings read alike, the source gives them in different places.
# Columns and labels:
# [1] = target: muscarinic binding site; assay: RCMD screening assay: inhibition of binding of radiolabeled cis-methyldioxolane (muscarinic agonist) to rat cerebral cortex tissue; conditions: read-out: IC₅nM RCMD
# Protocol: Similarly, in the RCMD screening assay, described more fully by T. W. Vickeroy, et al, 229(3):747 (1984), rat cerebral cortex tissue was treated with radiolabeled cis-methyldioxolane, a known muscarinic binding site agonist. The concentrations of test compounds required to inhibit 50% of the binding of this muscarinic agonist were then determined. […]
# [2] = target: muscarinic binding site; conditions: rat cerebral cortex tissue, radiolabeled quinuclidinyl benzilate, read-out: IC₅₀nM RQNB
SMILES,IC50 ([1]; hydrochloride) [µM],IC50 ([2]; hydrochloride) [µM],IC50 [1] [µM],IC50 [2] [µM]
"C=CC=CCON=C1CN2CCC1C2 (single isomer, unassigned) [28 (Isomer B), 1-Azabicyclo[2.2.1]-heptan-3-one, O-(2,4-pentadienyl)oxime hydrochloride]",0.256,9.65,,
"c1ccc(CON=C2CN3CCC2C3)cc1 (centres unmarked) [Example 5, 1-Azabicyclo[2.2.1]-heptan-3-one, O-(phenylmethyl)oxime hydrochloride]",,,0.133,5.95
"C#CCON=C1CN2CCC1C2 (centres unmarked) [Example 4, 1-Azabicyclo[2.2.1]-heptan-3-one, O-(2-propynyl)oxime hydrochloride]",,,0.0035,2.97
"C=CC=CCON=C1CN2CCC1C2 (single isomer, unassigned) [28 (Isomer A), 1-Azabicyclo[2.2.1]-heptan-3-one, O-(2,4-pentadienyl)oxime hydrochloride]",0.0129,0.434,,
"CCON=C1CN2CCC1C2 (centres unmarked) [Example 2, 1-Azabicyclo[2.2.1]hept-3-one, O-ethyloxime hydrochloride]",,,0.0125,3.11
"CC(C)ON=C1CN2CCC1C2 (centres unmarked) [Example 7, 1-Azabicyclo[2.2.1]-heptan-3-one, O-(1-methylethyl)oxime hydrochloride]",,,0.046,2.03
"CCCON=C1CN2CCC1C2 (centres unmarked) [Example 6, 1-Azabicyclo[2.2.1]-heptan-3-one, O-propyloxime hydrochloride]",,,0.12,3.85
"CON=C1CN2CCC1C2 (centres unmarked) [Example 3, 1-Azabicyclo[2.2.1]heptan-3-one, O-methyloxime hydrochloride]",,,0.0182,24.6
"C=CCON=C1CN2CCC1C2 (centres unmarked) [Example 8, 1-Azabicyclo[2.2.1]-heptan-3-one, O-(2-propenyl)oxime oxalate]",,,0.053,4.78
"N#CCON=C1CN2CCC1C2 (centres unmarked) [Example 27, {[(1-Azabicyclo[2.2.1]-heptan-3-ylidene)amino]-oxy}acetonitrile hydrochloride]",,,0.116,8.82

# Source: patent EP0445731B1 (priority 1990, dated 1991)
